In US10703748B2, “Diazanaphthalen-3-yl carboxamides and preparation and use thereof” (Samumed, LLC, priority 2017, dated 2020):
Read-outs that look alike come from different tables or passages of the source.

Legend:
[1] = tested on: Wnt-responsive Sp5-Luc reporter in SW480 colon carcinoma cells; assay: Screening assay for Wnt activity (Sp5-Luc reporter gene assay); conditions: for inhibition at 10 µM: SW480, read-out: percent inhibition at 10 μM
[2] = tested on: secreted cytokines TNFα, IL-6 and KC-GRO; assay: Secreted cytokines in Lipopolysaccharide-stimulated BV-2 cells (Table 9 does not say which cytokine); type: cell-based, mouse; conditions: read-out: EC50
IL-6 = IL-6 inhibition in LPS-stimulated human peripheral blood mononuclear cells (HTRF); conditions: Homo sapiens, PBMC; for EC50: 22 h; for inhibition at 10 µM: read-out: percentage in parentheses after EC50 >10
[3] = tested on: SW480 colon carcinoma cells; assay: Cell viability assay (CellTiter-Glo); conditions: for inhibition at 10 µM: SW480, read-out: percent inhibition at 10 μM
GSK3β kinase = GSK3β kinase (Homo sapiens, UniProt P49841); assay: GSK3β kinase activity (Ser/Thr 09 peptide Z-lyte FRET assay); type: biochemical; conditions: recombinant kinase, 46 μM ATP, one hour at room temperature; read-out: EC50
Sequence of GSK3β kinase (P49841 whole entry): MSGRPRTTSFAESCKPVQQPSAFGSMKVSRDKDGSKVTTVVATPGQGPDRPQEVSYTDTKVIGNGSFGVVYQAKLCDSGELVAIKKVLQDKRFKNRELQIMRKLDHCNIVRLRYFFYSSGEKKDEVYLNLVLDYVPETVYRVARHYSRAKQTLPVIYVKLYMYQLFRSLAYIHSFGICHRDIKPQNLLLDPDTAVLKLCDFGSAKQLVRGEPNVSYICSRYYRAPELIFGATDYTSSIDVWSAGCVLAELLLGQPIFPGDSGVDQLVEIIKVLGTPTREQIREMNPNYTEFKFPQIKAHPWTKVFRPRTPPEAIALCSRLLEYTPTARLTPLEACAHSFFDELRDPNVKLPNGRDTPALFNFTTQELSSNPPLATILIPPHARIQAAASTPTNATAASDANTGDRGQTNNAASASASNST

DYRK1A kinase = DYRK1A kinase (Homo sapiens, UniProt Q13627); assay: DYRK1A kinase activity (Ser/Thr 18 peptide Z-lyte FRET assay); type: biochemical; conditions: recombinant DYRK1A, 30 μM ATP, one hour at room temperature;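 note: kinase activity read as coumarin/fluorescein emission ratio after development step, with unphosphorylated and phosphorylated peptide forms setting 0% and 100% controls, values from dose-response curves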
[4] = tested on: α-smooth muscle actin (aSMA) positive LL29 cells; assay: Inhibition of the fibrotic process: αSMA staining in TGF-β1 treated LL29 fibroblasts from IPF patients; conditions: for inhibition at 10 µM: read-out: percentage in parentheses after EC50 >10

Row | SMILES | EC50 ([1]; Homo sapiens, SW480) [µM] | EC50 ([2]; Mus musculus, BV-2, 5 h) [µM] | EC50 (IL-6) [µM] | EC50 ([3]; Homo sapiens, SW480, 96 h) [µM] | EC50 (GSK3β kinase) [µM] | EC50 (DYRK1A kinase) [µM] | EC50 ([1]; SW480 Sp5-Luc reporter cells, 36 to 48 hours) [µM] | EC50 ([2]; BV-2 cells, LPS 250 ng/mL 5 hours, compounds overnight, 10 μM to […], cytokine not named in Table 9) [µM] | EC50 ([3]; SW480 cells, four days, CellTiter-Glo) [µM] | EC50 ([4]; Homo sapiens, Fibroblast, 96 h) [µM] | inhibition at 10 µM (IL-6) [%] | inhibition at 10 µM ([1]; Homo sapiens) [%] | inhibition at 10 µM ([3]; Homo sapiens) [%] | inhibition at 10 µM ([4]; Homo sapiens, Fibroblast) [%] | percent inhibition at 10 μM ([1]; at 10 μM, given for EC50 of >10 μM, SW480 Sp5-Luc reporter) [%] | percent inhibition at 10 μM ([3]; at 10 μM, given for EC50 of >10 μM, SW480 cell viability) [%] | EC50 ([4]; LL29 fibroblasts from IPF patients, TGF-β1 20 ng/mL, 4 days, curves from 10 μM to 0.94 nM) [µM] | percentage in parentheses after EC50 >10 ([4]; LL29 fibroblasts, TGF-β1, given beside >10 μM, meaning not given) [%]
1 | CN1CCC(Oc2ccc(C(=O)Nc3cc4nc(-c5cnn(C)c5)ccc4cn3)cc2)CC1 [Compound 145, N-(2-(1-methyl-1H-pyrazol-4-yl)-1,6-naphthyridin-7-yl)-4-((1-methylpiperidin-4-yl)oxy)benzamide] | 0.259 | 0.212 | 3.25 | 0.535 | 2 | 0.005 |  |  |  | 0.369 |  |  |  |  |  |  |  | 
2 | CN1CCN(c2cc(C(=O)Nc3cc4nc(-c5cnn(C)c5)ccc4cn3)ccn2)CC1 [Compound 147, N-(2-(1-Methyl-1H-pyrazol-4-yl)-1,6-naphthyridin-7-yl)-2-(4-methylpiperazin-1-yl)isonicotinamide] | 0.102 | 0.122 | 2.2 | 0.311 | > 10 | 0.007 |  |  |  | 0.41 |  |  |  |  |  |  |  | 
3 | CN1CCN(c2ccc(C(=O)Nc3cc4nc(-c5cnn(C)c5)ccc4cn3)cn2)CC1 [Compound 151, N-(2-(1-Methyl-1H-pyrazol-4-yl)-1,6-naphthyridin-7-yl)-6-(4-methylpiperazin-1-yl)nicotinamide] | 0.498 | 0.088 | 3.68 | 3.68 | 0.571 | 0.002 |  |  |  | 0.432 |  |  |  |  |  |  |  | 
4 | Cn1cc(-c2ccc3cnc(NC(=O)c4ccnc(OC5CCNCC5)c4)cc3n2)cn1 [Compound 153, N-(2-(1-Methyl-1H-pyrazol-4-yl)-1,6-naphthyridin-7-yl)-2-(piperidin-4-yloxy)isonicotinamide] | 0.111 | 0.159 | 2.07 | 0.353 | 6 | 0.004 |  |  |  | 1.1 |  |  |  |  |  |  |  | 
5 | CN(C)CCNc1cc(C(=O)Nc2cc3nc(-c4cnn(C)c4)ccc3cn2)ccn1 [Compound 164, 2-((2-(Dimethylamino)ethyl)amino)-N-(2-(1-methyl-1H-pyrazol-4-yl)-1,6-naphthyridin-7-yl)isonicotinamide] | 0.585 | 0.165 | > 10 | 2.77 | 4.01 | 0.006 |  |  |  | 0.717 | 17.6 |  |  |  |  |  |  | 
6 | CN(C)Cc1ccc(C(=O)Nc2cc3nc(-c4cnn(C)c4)ccc3cn2)cc1 [Compound 170, 4-((Dimethylamino)methyl)-N-(2-(1-methyl-1H-pyrazol-4-yl)-1,6-naphthyridin-7-yl)benzamide] | 0.396 | 0.055 | 8.09 | 3.37 | 1.87 | 0.006 |  |  |  | 1.3 |  |  |  |  |  |  |  | 
7 | CN1CCN(Cc2cccc(C(=O)Nc3cc4nc(-c5cnn(C)c5)ccc4cn3)c2)CC1 [Compound 172, N-(2-(1-Methyl-1H-pyrazol-4-yl)-1,6-naphthyridin-7-yl)-3-((4-methylpiperazin-1-yl)methyl)benzamide] | 0.445 | 0.214 | > 10 | 1.01 | 0.765 | 0.013 |  |  |  | 0.393 | 32.7 |  |  |  |  |  |  | 
8 | CN1CCc2ccc(C(=O)Nc3cc4nc(-c5cnn(C)c5)ccc4cn3)cc2C1 [Compound 202, 2-Methyl-N-(2-(1-methyl-1H-pyrazol-4-yl)-1,6-naphthyridin-7-yl)-1,2,3,4-tetrahydroisoquinoline-7-carboxamide] | 0.686 | 0.3 | > 10 | 9.31 | > 10 | 0.009 |  |  |  | 0.53 | 5.1 |  |  |  |  |  |  | 
9 | Cn1cc(-c2ccc3cnc(NC(=O)c4ccc5ccoc5c4)cc3n2)cn1 [Compound 209, N-(2-(1-Methyl-1H-pyrazol-4-yl)-1,6-naphthyridin-7-yl)benzofuran-6-carboxamide] | 0.485 | 0.864 | > 10 | 3.15 | > 10 | 0.005 |  |  |  | 0.436 | 3.1 |  |  |  |  |  |  | 
10 | Cn1cc(-c2ccc3cnc(NC(=O)c4ccc5nccnc5c4)cc3n2)cn1 [Compound 216, N-(2-(1-Methyl-1H-pyrazol-4-yl)-1,6-naphthyridin-7-yl)quinoxaline-6-carboxamide] | 0.447 | 0.378 | > 10 | 3.16 | 4.85 | 0.007 |  |  |  | 0.598 | 0 |  |  |  |  |  |  | 

Second part, led by results:

Row | EC50 ([1]; Homo sapiens, SW480) [µM] | EC50 ([2]; Mus musculus, BV-2, 5 h) [µM] | EC50 (IL-6) [µM] | EC50 ([3]; Homo sapiens, SW480, 96 h) [µM] | EC50 (GSK3β kinase) [µM] | EC50 (DYRK1A kinase) [µM] | EC50 ([1]; SW480 Sp5-Luc reporter cells, 36 to 48 hours) [µM] | EC50 ([2]; BV-2 cells, LPS 250 ng/mL 5 hours, compounds overnight, 10 μM to […], cytokine not named in Table 9) [µM] | EC50 ([3]; SW480 cells, four days, CellTiter-Glo) [µM] | SMILES | EC50 ([4]; Homo sapiens, Fibroblast, 96 h) [µM] | inhibition at 10 µM (IL-6) [%] | inhibition at 10 µM ([1]; Homo sapiens) [%] | inhibition at 10 µM ([3]; Homo sapiens) [%] | inhibition at 10 µM ([4]; Homo sapiens, Fibroblast) [%] | percent inhibition at 10 μM ([1]; at 10 μM, given for EC50 of >10 μM, SW480 Sp5-Luc reporter) [%] | percent inhibition at 10 μM ([3]; at 10 μM, given for EC50 of >10 μM, SW480 cell viability) [%] | EC50 ([4]; LL29 fibroblasts from IPF patients, TGF-β1 20 ng/mL, 4 days, curves from 10 μM to 0.94 nM) [µM] | percentage in parentheses after EC50 >10 ([4]; LL29 fibroblasts, TGF-β1, given beside >10 μM, meaning not given) [%]
11 | 0.076 | 0.207 | 0.723 | 0.105 | 0.753 | 0.006 |  |  |  | Cn1cc(-c2ccc3cnc(NC(=O)c4cnn(C5CCNCC5)c4)cc3n2)cn1 [Compound 228, N-(2-(1-Methyl-1H-pyrazol-4-yl)-1,6-naphthyridin-7-yl)-1-(piperidin-4-yl)-1H-pyrazole-4-carboxamide] | 0.376 |  |  |  |  |  |  |  | 
12 | > 10 | 2.4 | > 10 | > 10 | 2.27 | 0.01 |  |  |  | O=C(Nc1cc2cc(-c3cncc(NCC4(F)CNC4)n3)cnc2cn1)C1CC1 [Compound 3591, N-(3-(6-(((3-Fluoroazetidin-3-yl)methyl)amino)pyrazin-2-yl)-1,7-naphthyridin-6-yl)cyclopropanecarboxamide] |  | 4.4 | 1.3 | 6.1 |  |  |  |  | 
13 | > 10 |  | > 10 | > 10 | > 10 | 0.175 |  |  |  | CC(C)Oc1ccc(C(=O)Nc2ncc3ccc(-c4cnc5n4CCN(C)C5)cc3n2)cc1 [Compound 4577, 4-Isopropoxy-N-(7-(7-methyl-5,6,7,8-tetrahydroimidazo[1,2-a]pyrazin-3-yl)quinazolin-2-yl)benzamide] | > 10 | 2.6 | 28.9 | 19.7 | 42.7 |  |  |  | 
14 | > 10 |  | > 10 | > 10 | 0.528 | 0.035 |  |  |  | N#CC(c1cncc(-c2ccc3cnc(NC(=O)C4CC4)nc3c2)c1)N1CCC(O)CC1 (stereo not drawn) [Compound 4594, N-(7-(5-(Cyano(4-hydroxypiperidin-1-yl)methyl)pyridin-3-yl)quinazolin-2-yl)cyclopropanecarboxamide] | 3.25 | 2.4 | 35.6 | 15 |  |  |  |  | 
15 | > 10 |  | > 10 | 4.57 | > 10 | 0.038 |  |  |  | CN1CC(COc2cncc(-c3ccc4cnc(NC(=O)c5ccc(F)cc5)nc4c3)n2)C1 [Compound 4595, 4-Fluoro-N-(7-(6-((1-methylazetidin-3-yl)methoxy)pyrazin-2-yl)quinazolin-2-yl)benzamide] | > 10 | 5.3 | 20.1 |  | 2.8 |  |  |  | 
16 |  |  |  |  |  |  | > 10 | 2.9 | > 10 | CN1CCN(c2ncc(C(=O)Nc3cc4cc(-c5cnn(C)c5)ncc4cn3)s2)CC1 [Compound 4602, N-(6-(1-Methyl-1H-pyrazol-4-yl)-2,7-naphthyridin-3-yl)-2-(4-methylpiperazin-1-yl)thiazole-5-carboxamide] |  |  |  |  |  | 10.9 | 26.1 | > 10 | 14.3
